# Results as given in patent publication EP0983294B1, “B-RING E[…] SULPHATES” (Wyeth, priority 1997, dated 1998).
# Tested on: Immature rats
# Experiment: In vivo uterotropic activity
# Conditions: 0.2 and 2 mg/kg for three days (S.C.)
# Protocol: Immature rats were treated with doses of 0.2 and 2 mg/kg 5,7,9-estratriene-3β,17β-diol for three days (S.C.) as well as additional groups (n=6) of rats treated with 0.5 µg ethinyl estradiol and vehicle as positive and negative controls, respectively.
smiles,measurement,value
"C[C@]12CCc3c(ccc4c3CC[C@H](O)C4)[C@@H]1CC[C@@H]2O [5,7,9-estratriene-3β,17β-diol]",uterine weight,uterine weight gains at both concentrations
